Data from ChEMBL document CHEMBL3351918 (Bioorg Med Chem, 2014).
Activity calls are given as the source filed them. The calls are words filed in the database; no cut-off is given here.

Columns and labels:
Acetylcholinesterase [1] = target: T1, Acetylcholinesterase (Rattus norvegicus, UniProt P37136); assay: Inhibition of AChE in rat cortex homogenates using acetylthiocholine iodide substrate incubated for 15 mins by UV spectroscopy based Ellman's method
T1 sequence (P37136 whole entry): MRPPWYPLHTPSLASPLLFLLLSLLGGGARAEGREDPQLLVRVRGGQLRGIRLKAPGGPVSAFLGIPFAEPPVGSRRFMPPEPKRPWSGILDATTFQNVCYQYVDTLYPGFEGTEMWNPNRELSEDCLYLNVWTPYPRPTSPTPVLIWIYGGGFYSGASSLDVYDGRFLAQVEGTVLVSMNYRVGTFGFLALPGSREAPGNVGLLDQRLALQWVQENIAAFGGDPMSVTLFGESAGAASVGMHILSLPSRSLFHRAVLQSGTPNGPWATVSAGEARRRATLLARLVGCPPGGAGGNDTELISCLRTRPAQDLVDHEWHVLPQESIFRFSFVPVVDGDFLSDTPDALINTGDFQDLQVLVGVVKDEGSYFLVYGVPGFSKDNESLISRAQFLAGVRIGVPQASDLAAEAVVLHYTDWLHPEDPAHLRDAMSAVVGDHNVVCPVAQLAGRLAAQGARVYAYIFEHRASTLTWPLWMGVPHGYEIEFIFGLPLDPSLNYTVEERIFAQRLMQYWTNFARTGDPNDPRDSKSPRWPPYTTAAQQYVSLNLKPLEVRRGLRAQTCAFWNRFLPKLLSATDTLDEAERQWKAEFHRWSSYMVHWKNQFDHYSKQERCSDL

Butyrylcholinesterase = Butyrylcholinesterase (Rattus norvegicus, UniProt Q9JKC1); assay: Inhibition of BChE in rat serum using butyrylthiocholine iodide substrate incubated for 15 mins by UV spectroscopy based Ellman's method; format: cell-free
Sequence of Butyrylcholinesterase (Q9JKC1 whole entry): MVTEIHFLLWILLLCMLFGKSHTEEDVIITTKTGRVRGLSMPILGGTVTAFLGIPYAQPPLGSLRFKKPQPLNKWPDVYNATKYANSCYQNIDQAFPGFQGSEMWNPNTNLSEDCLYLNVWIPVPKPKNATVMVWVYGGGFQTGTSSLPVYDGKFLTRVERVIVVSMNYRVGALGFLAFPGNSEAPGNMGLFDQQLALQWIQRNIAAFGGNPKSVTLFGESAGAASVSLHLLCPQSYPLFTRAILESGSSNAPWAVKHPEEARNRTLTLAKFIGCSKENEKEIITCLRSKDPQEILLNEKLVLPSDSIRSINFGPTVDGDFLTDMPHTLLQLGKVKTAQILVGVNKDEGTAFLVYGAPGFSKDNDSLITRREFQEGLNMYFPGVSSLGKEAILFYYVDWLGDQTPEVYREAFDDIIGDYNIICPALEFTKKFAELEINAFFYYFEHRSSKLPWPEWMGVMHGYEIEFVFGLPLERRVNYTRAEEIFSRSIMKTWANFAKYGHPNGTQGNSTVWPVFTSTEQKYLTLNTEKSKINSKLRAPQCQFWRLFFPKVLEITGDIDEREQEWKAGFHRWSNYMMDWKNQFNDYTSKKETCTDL

[2] = target: Amyloid-beta precursor protein (Homo sapiens) (UniProt P05067); assay: Inhibition of Amyloid beta (1 to 40) (unknown origin) assessed as self-mediated fibril formation at 50 uM incubated for 48 hrs by transmission electron microscopy
Sequence of Amyloid-beta precursor protein (Homo sapiens) (P05067 whole entry): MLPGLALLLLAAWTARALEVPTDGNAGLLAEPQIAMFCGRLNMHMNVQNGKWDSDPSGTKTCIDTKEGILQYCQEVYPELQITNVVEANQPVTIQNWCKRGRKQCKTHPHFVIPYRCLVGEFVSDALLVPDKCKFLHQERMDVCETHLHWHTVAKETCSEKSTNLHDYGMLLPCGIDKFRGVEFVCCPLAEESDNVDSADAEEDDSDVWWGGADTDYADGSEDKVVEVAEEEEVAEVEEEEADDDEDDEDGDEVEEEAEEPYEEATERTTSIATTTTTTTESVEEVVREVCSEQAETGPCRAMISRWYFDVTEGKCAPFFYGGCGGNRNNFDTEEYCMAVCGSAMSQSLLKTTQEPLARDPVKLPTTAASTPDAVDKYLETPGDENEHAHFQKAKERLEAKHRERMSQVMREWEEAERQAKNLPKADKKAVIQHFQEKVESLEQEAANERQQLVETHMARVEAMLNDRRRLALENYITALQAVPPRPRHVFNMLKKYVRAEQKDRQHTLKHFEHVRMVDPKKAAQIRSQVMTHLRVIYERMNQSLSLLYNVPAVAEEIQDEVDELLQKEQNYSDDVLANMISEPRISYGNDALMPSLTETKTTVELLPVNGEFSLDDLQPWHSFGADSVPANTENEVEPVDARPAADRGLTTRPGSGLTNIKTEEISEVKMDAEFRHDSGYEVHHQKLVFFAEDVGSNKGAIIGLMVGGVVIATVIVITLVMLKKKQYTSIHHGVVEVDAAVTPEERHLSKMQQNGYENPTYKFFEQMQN

Acetylcholinesterase [3] = target: T1, Acetylcholinesterase; assay: Prodrug activation in rat cortex homogenates assessed as AChE-mediated 2-methoxy-4-(piperidin-1-ylmethyl)phenol formation at 1 mmol after 24 hrs by HPLC-MS method; settings: tissue homogenate
Acetylcholinesterase [4] = target: T1, Acetylcholinesterase; assay: Retention time in rat cortex homogenates at 1 mmol after 24 hrs by HPLC-MS method; format: ADME; settings: tissue homogenate
[5] = Antioxidant activity assessed as ABTS radical cation scavenging activity; format: physicochemical
[6] = target: Butyrylcholinesterase (Rattus norvegicus) (UniProt Q9JKC1); assay: Potency index, ratio of IC50 for rivastigmine to IC50 for test compound against BChE in rat serum using butyrylthiocholine iodide substrate incubated for 15 mins by UV spectroscopy based Ellman's method; format: cell-free
Sequence of Butyrylcholinesterase (Rattus norvegicus) (Q9JKC1 as listed by the source): as the sequence (Q9JKC1 whole entry) above

Acetylcholinesterase [7] = target: T1, Acetylcholinesterase; assay: Prodrug activation in rat cortex homogenates treated with 1 mmol 2-Methoxy-4-(piperidin-1-ylmethyl)phenyl dimethylcarbamate assessed as AChE-mediated compound formation after 24 hrs by HPLC-MS method; format: ADME; settings: tissue homogenate
[8] = Metal chelating activity assessed as inhibition of copper-mediated Amyloid beta (1 to 40) aggregation at 50 uM after 48 hrs by transmission electron microscopy; format: physicochemical

COc1cc(CN2CCCCC2)ccc1OC(=O)N(C)C
IC50 (Acetylcholinesterase [1]): 97 nM
IC50 (Butyrylcholinesterase): 24 nM
inhibition [2]: Active
Drug metabolism (Acetylcholinesterase [3]): metabolite_detected
Retention_time (Acetylcholinesterase [4]): 6.84 min

COc1cc(/C=C/C(=O)CC(=O)/C=C/c2ccc(O)c(OC)c2)ccc1O
inhibition [2]: Active

COc1cc(CN2CCOCC2)ccc1OC(=O)N(C)C
IC50 (Acetylcholinesterase [1]): 1710 nM
IC50 (Butyrylcholinesterase): 430 nM

COc1ccc(CN2CCOCC2)cc1OC(=O)N(C)C
IC50 (Acetylcholinesterase [1]): 20800 nM
IC50 (Butyrylcholinesterase): 120 nM

COc1ccc2[nH]cc(CCNC(C)=O)c2c1 [MELATONIN]
IC50 [5]: 1920 nM
inhibition (INH) [5]: Dose-dependent effect

COc1ccc(CN2CCCC2)cc1OC(=O)N(C)C
IC50 (Acetylcholinesterase [1]): 2870 nM
IC50 (Butyrylcholinesterase): 29 nM

CCN(CC)Cc1ccc(OC(=O)N(C)C)c(OC)c1
IC50 (Acetylcholinesterase [1]): 110 nM
IC50 (Butyrylcholinesterase): 35 nM

CCN(CC)Cc1ccc(OC)c(OC(=O)N(C)C)c1
IC50 (Acetylcholinesterase [1]): 1480 nM
IC50 (Butyrylcholinesterase): 79 nM

COc1ccc(C(C)N2CCCC2)cc1OC(=O)N(C)C (stereo not given)
IC50 (Acetylcholinesterase [1]): 1920 nM
IC50 (Butyrylcholinesterase): 82 nM

COc1ccc(CN2CCCCC2)cc1OC(=O)N(C)C
IC50 (Acetylcholinesterase [1]): 660 nM
IC50 (Butyrylcholinesterase): 10 nM
Ratio IC50 [6]: 40
inhibition [2]: Active

COc1cc(CN2CCCC2)ccc1OC(=O)N(C)C
IC50 (Acetylcholinesterase [1]): 130 nM
IC50 (Butyrylcholinesterase): 12 nM

COc1cc(CN2CCCCC2)ccc1O
Drug metabolism (Acetylcholinesterase [7]): metabolite_detected
Retention_time (Acetylcholinesterase [4]): 5.5 min
IC50 [5]: 2910 nM
inhibition (INH) [5]: Dose-dependent effect
inhibition (INH) [8]: Active

COc1cc(C(C)N2CCCCC2)ccc1OC(=O)N(C)C (stereo not given)
IC50 (Acetylcholinesterase [1]): 110 nM
IC50 (Butyrylcholinesterase): 8 nM
Ratio IC50 [6]: 40
inhibition [2]: Active

CCN(CC)C(C)c1ccc(OC(=O)N(C)C)c(OC)c1 (stereo not given)
IC50 (Acetylcholinesterase [1]): 240 nM
IC50 (Butyrylcholinesterase): 63 nM

COc1ccc(C(C)N2CCOCC2)cc1OC(=O)N(C)C (stereo not given)
IC50 (Acetylcholinesterase [1]): 23300 nM
IC50 (Butyrylcholinesterase): 270 nM

COc1cc(C(C)N2CCCC2)ccc1OC(=O)N(C)C (stereo not given)
IC50 (Acetylcholinesterase [1]): 190 nM
IC50 (Butyrylcholinesterase): 18 nM

COc1cc(C(C)N2CCOCC2)ccc1OC(=O)N(C)C (stereo not given)
IC50 (Acetylcholinesterase [1]): 4980 nM
IC50 (Butyrylcholinesterase): 310 nM

CCN(C)C(=O)Oc1cccc([C@H](C)N(C)C)c1
inhibition [2]: inactive

COc1cccc(CN2CCCCC2)c1OC(=O)N(C)C
IC50 (Acetylcholinesterase [1]): 22700 nM
IC50 (Butyrylcholinesterase): 3130 nM

COc1ccc(C(C)N2CCCCC2)cc1OC(=O)N(C)C (stereo not given)
IC50 (Acetylcholinesterase [1]): 1420 nM
IC50 (Butyrylcholinesterase): 34 nM

CCN(CC)C(C)c1ccc(OC)c(OC(=O)N(C)C)c1 (stereo not given)
IC50 (Acetylcholinesterase [1]): 2770 nM
IC50 (Butyrylcholinesterase): 130 nM
